The term IC50 denotes the midpoint of a concentration-inhibition curve.

The results in this text go back to US11566047B2, “Peptide or pharmaceutically acceptable salt thereof, or prodrug thereof” (TOKYO UNIVERSITY OF PHARMACY & LIFE SCIENCES, priority 2016, dated 2023).

The target of the assay is T1, myostatin (Homo sapiens, UniProt O14793).
T1 sequence (O14793 267-375): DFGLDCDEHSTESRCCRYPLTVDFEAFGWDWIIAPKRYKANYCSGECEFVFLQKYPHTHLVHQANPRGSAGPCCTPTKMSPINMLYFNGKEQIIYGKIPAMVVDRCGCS
The assay is described as follows: cell-based. Particulars: for remaining activity at 0.3 µM: HEK293, read-out: luciferase activity (relative; myostatin without test sample = 100%). On the procedure:
Human embryo kidney cell HEK293 cells were cultured in a 5% (v/v) CO2 incubator set to 37° C. using DMEM (NACALAI TESQUE, INC.) including a 10% (v/v) fetal bovine serum (FBS) added with a 1% (v/v) non-essential amino acid (Wako Pure Chemical Corporation).
(2) In Vitro Reporter Assay
HEK293 cells were seeded on a D-Lys-corted 96-well transparent plate (Thermo Fisher Scientific Inc.) in an amount of 2.0×10^4 cells (100 μL DMEM+10% (v/v) FBS) per well and were cultured for 24 hours.
The cells were cultured at 37° C. for 24 hours, and after the cell culture solution was replaced with serum-free DMEM, the cells were cultured for 8 hours. Incidentally, pGL4.48 [luc2P/SBE/Hygro] includes firefly luciferase reporter gene luc2P under Smad binding region (SBE) control, and when a signaling pathway by the myostatin is activated, intracellular Smad forms a complex, and the complex is bonded to SBE to promote transcription of luc2P.
The peptide as a test sample was suspended as a stock solution using DMSO to become 10 mM and stored at −30° C. Before 1 hour from addition to the culture medium, the peptide and a myostatin (Merck Millipore Corp.) were suspended with serum-free DMEM and left to stand still at room temperature (25° C.) for 20 minutes. Subsequently, a peptide with an arbitrary final concentration (0.3 to […]) and 8 ng/mL of myostatin were added to the culture medium, and then culturing was performed for 4 hours. After culturing for 4 hours, the culture solution was removed by an aspirator and the cells were washed with 1×PBS. Thereafter, Passive Lysis buffer (Promega Corporation) was added in an amount of 50 μL per well to dissolve the cells. The dissolving solution was subjected to centrifugal separation at 4500 rpm for 6 minutes under the condition of 4° C. After 20 μL of supernatant subjected to centrifugal separation was transferred to a white 96-well plate (Costar), 50 μL of Luciferase Assay Reagent (Promega Corporation) was then added, emission was detected by Luminoskan Ascent (Thermo Fisher Scientific Inc.), and a firefly luciferase activity was measured. Further, after 50 μL of Stop & Glo Buffer (Promega Corporation) was added, emission was detected by Luminoskan Ascent, and a Renilla luciferase activity was measured to be regarded as an internal control.

Square brackets hold non-standard residues; d marks the D form. Ends that are not written are not given here. Peptide text beside a SMILES is read from it. * marks the point of attachment. Propanoyl(3,3-Ph2) = O=C(CC(c1ccccc1)c1ccccc1)*; 2Nal = N[C@@H](Cc1ccc2ccccc2c1)C(=O)O; Chg = N[C@H](C(=O)O)C1CCCCC1; R111 = not defined here Some results are limits rather than exact numbers.

Consider `CC[C@H](C)[C@H](NC(=O)[C@H](CCC(N)=O)NC(=O)[C@@H](NC(=O)[C@H](CCCCN)NC(=O)[C@@H](NC(=O)[C@H](Cc1c[nH]c2ccccc12)NC(=O)[C@H](CCC(N)=O)NC(=O)[C@@H](NC(=O)[C@H](Cc1ccc(O)cc1)NC(=O)[C@@H](N)Cc1c[nH]c2ccccc12)[C@@H](C)CC)[C@@H](C)CC)[C@@H](C)CC)C(=O)N[C@@H](Cc1c[nH]c2ccccc12)C(=O)N[C@@H](CO)C(=O)N[C@@H](CCCCN)C(=O)N[C@@H](CC(C)C)C(=O)N[C@@H](CCCNC(=N)N)C(=O)N[C@@H](CC(C)C)C(N)=O` [nPDM-55/E31Q, WYIQWIKIQIWSKLRL-NH2] (H-WYIQWIKIQIWSKLRL-NH2), for which the remaining activity at 0.3 µM was at most 60%.

As for `CC[C@H](C)[C@H](NC(=O)[C@H](CCC(N)=O)NC(=O)[C@@H](NC(=O)[C@H](CCCCN)NC(=O)[C@@H](NC(=O)[C@H](Cc1c[nH]c2ccccc12)NC(=O)[C@H](CCCNC(=N)N)NC(=O)[C@@H](NC(=O)[C@H](Cc1ccc(O)cc1)NC(=O)[C@@H](N)Cc1c[nH]c2ccccc12)[C@@H](C)CC)[C@@H](C)CC)C1CCCCC1)C(=O)N[C@@H](Cc1c[nH]c2ccccc12)C(=O)N[C@@H](CO)C(=O)N[C@@H](CCCCN)C(=O)N[C@@H](CC(C)C)C(=O)N[C@@H](CCCNC(=N)N)C(=O)N[C@@H](CC(C)C)C(N)=O` [nPDM-64, WYIRWIK-Chg-QIWSKLRL-NH2] (H-WYIRWIK[Chg]QIWSKLRL-NH2), the remaining activity at 0.3 µM is at most 60%.

As to `CC[C@H](C)[C@H](NC(=O)[C@H](CCC(N)=O)NC(=O)[C@@H](NC(=O)[C@H](CCCCN)NC(=O)[C@@H](NC(=O)[C@H](Cc1c[nH]c2ccccc12)NC(=O)[C@H](CCCNC(=N)N)NC(=O)[C@@H](NC(=O)[C@H](Cc1ccc(O)cc1)NC(=O)[C@@H](N)Cc1c[nH]c2ccccc12)[C@@H](C)CC)[C@@H](C)CC)[C@@H](C)CC)C(=O)N[C@@H](Cc1c[nH]c2ccccc12)C(=O)N[C@@H](CO)C(=O)N[C@@H](CCCCN)C(=O)N[C@H](C(=O)N[C@@H](CCCNC(=N)N)C(=O)N[C@@H](CC(C)C)C(N)=O)C1CCCCC1` [nPDM-65, WYIRWIKIQIWSK-Chg-RL-NH2] (H-WYIRWIKIQIWSK[Chg]RL-NH2), the remaining activity at 0.3 µM was at most 60%.

Turning to `CC[C@H](C)[C@H](NC(=O)[C@H](CCC(N)=O)NC(=O)[C@@H](NC(=O)[C@H](CCCCN)NC(=O)[C@@H](NC(=O)[C@H](Cc1c[nH]c2ccccc12)NC(=O)[C@H](CCCNC(=N)N)NC(=O)[C@@H](NC(=O)[C@H](Cc1ccc(O)cc1)NC(=O)[C@@H](N)Cc1c[nH]c2ccccc12)[C@@H](C)CC)[C@@H](C)CC)C1CCCCC1)C(=O)N[C@@H](Cc1c[nH]c2ccccc12)C(=O)N[C@@H](CO)C(=O)N[C@@H](CCCCN)C(=O)N[C@H](C(=O)N[C@@H](CCCNC(=N)N)C(=O)N[C@@H](CC(C)C)C(N)=O)C1CCCCC1` [nPDM-66, WYIRWIK-Chg-QIWSK-Chg-RL-NH2] (H-WYIRWIK[Chg]QIWSK[Chg]RL-NH2), the remaining activity at 0.3 µM was at most 60%.

In the case of `CC[C@H](C)[C@H](NC(=O)[C@H](CCC(N)=O)NC(=O)[C@@H](NC(=O)[C@H](CCCCN)NC(=O)[C@@H](NC(=O)[C@H](Cc1ccc2ccccc2c1)NC(=O)[C@H](CCCNC(=N)N)NC(=O)[C@@H](NC(=O)[C@H](Cc1ccc(O)cc1)NC(=O)[C@@H](N)Cc1ccc(O)cc1)[C@@H](C)CC)[C@@H](C)CC)[C@@H](C)CC)C(=O)N[C@@H](Cc1c[nH]c2ccccc12)C(=O)N[C@@H](CO)C(=O)N[C@@H](CCCCN)C(=O)N[C@@H](CC(C)C)C(=O)N[C@@H](CCCNC(=N)N)C(=O)N[C@@H](CC(C)C)C(N)=O` [nPDM-69, YYIR-Naa-IKIQIWSKLRL-NH2] (H-YYIR[2Nal]IKIQIWSKLRL-NH2), the remaining activity at 0.3 µM was at most 60%.

Turning to `CC[C@H](C)[C@H](NC(=O)[C@H](CCC(N)=O)NC(=O)[C@@H](NC(=O)[C@H](CCCNC(=N)N)NC(=O)[C@@H](NC(=O)[C@@H](Cc1c[nH]c2ccccc12)NC(=O)[C@H](CCCNC(=N)N)NC(=O)[C@@H](NC(=O)[C@H](Cc1ccc(O)cc1)NC(=O)[C@@H](N)Cc1c[nH]c2ccccc12)[C@@H](C)CC)[C@@H](C)CC)C1CCCCC1)C(=O)N[C@@H](Cc1c[nH]c2ccccc12)C(=O)N[C@@H](CO)C(=O)N[C@@H](CCCNC(=N)N)C(=O)N[C@H](C(=O)N1CCC[C@H]1C(=O)N[C@@H](CC(C)C)C(N)=O)C1CCCCC1` [nPDM-80, WYIRwIR-Chg-QIWSR-Chg-PL-NH2] (H-WYIR[dW]IR[Chg]QIWSR[Chg]PL-NH2), the remaining activity at 0.3 µM is at most 60%.

For `CC[C@H](C)[C@H](NC(=O)[C@H](CCC(N)=O)NC(=O)[C@@H](NC(=O)[C@H](CCCNC(=N)N)NC(=O)[C@@H](NC(=O)[C@@H](Cc1c[nH]c2ccccc12)NC(=O)[C@H](CCCNC(=N)N)NC(=O)[C@@H](NC(=O)[C@H](Cc1ccc(O)cc1)NC(=O)[C@@H](N)Cc1c[nH]c2ccccc12)[C@@H](C)CC)[C@@H](C)CC)C1CCCCC1)C(=O)N[C@@H](Cc1c[nH]c2ccccc12)C(=O)N[C@H](CO)C(=O)N[C@@H](CCCNC(=N)N)C(=O)N[C@H](C(=O)N1CCC[C@H]1C(=O)N[C@@H](CC(C)C)C(N)=O)C1CCCCC1` [nPDM-82, WYIRwIR-Chg-QIWsR-Chg-PL-NH2] (H-WYIR[dW]IR[Chg]QIW[dS]R[Chg]PL-NH2), the remaining activity at 0.3 µM is at most 60%.

Turning to `CC[C@H](C)[C@H](NC(=O)[C@H](Cc1ccc(O)cc1)NC(=O)CC(c1ccccc1)c1ccccc1)C(=O)N[C@@H](CCCNC(=N)N)C(=O)N[C@@H](Cc1c[nH]c2ccccc12)C(=O)N[C@H](C(=O)N[C@@H](CCCNC(=N)N)C(=O)N[C@H](C(=O)N[C@@H](CCC(N)=O)C(=O)N[C@H](C(=O)N[C@@H](Cc1c[nH]c2ccccc12)C(=O)N[C@@H](CO)C(=O)N[C@@H](CCCNC(=N)N)C(=O)N[C@H](C(=O)N1CCC[C@H]1C(=O)N[C@@H](CC(C)C)C(N)=O)C1CCCCC1)[C@@H](C)CC)C1CCCCC1)[C@@H](C)CC` [nPDM-85, R^114-YIRWIR-Chg-QIWSR-Chg-PL-NH2] ({Propanoyl(3,3-Ph2)}-YIRWIR[Chg]QIWSR[Chg]PL-NH2), the remaining activity at 0.3 µM is at most 60%.

With `CC[C@H](C)[C@H](NC(=O)[C@H](CCC(N)=O)NC(=O)[C@@H](NC(=O)[C@H](CCCCN)NC(=O)[C@@H](NC(=O)[C@@H](Cc1c[nH]c2ccccc12)NC(=O)[C@H](CCCNC(=N)N)NC(=O)[C@@H](NC(=O)[C@H](Cc1ccc(O)cc1)NC(=O)[C@@H](N)Cc1c[nH]c2ccccc12)[C@@H](C)CC)[C@@H](C)CC)C1CCCCC1)C(=O)N[C@@H](Cc1c[nH]c2ccccc12)C(=O)N[C@@H](CO)C(=O)N[C@@H](CCCCN)C(=O)N[C@H](C(=O)N[C@@H](CCCNC(=N)N)C(=O)N[C@@H](CC(C)C)C(N)=O)C1CCCCC1` [nPDM-86, WYIRwIK-Chg-QIWSK-Chg-RL-NH2] (H-WYIR[dW]IK[Chg]QIWSK[Chg]RL-NH2), the remaining activity at 0.3 µM was at most 60%. Further, for the setting “comparison of IC50 values”, the “inhibitory activity relative to 3d” value is “approximately two times higher inhibitory activity”. Also, the IC50 (read-out: IC50 value, myostatin inhibitory activity, concentration range of 0.016 to 2 μM) was 131 nM.

On to “R^111-WYIEWIKIQIISKLRL-NH2 (R111-WYIEWIKIQIISKLRL-NH2; reading uncertain; also: printed as R^111-WYIEWIKIQIISKLRL-NH2) [PDM-27]”, for which the “myostatin inhibitory activity (concentration-dependent evaluation)” value (at a concentration of 1 μM or more, 8 ng/mL myostatin, HEK293) is recorded as “significant myostatin inhibitory activity”.

With “SRIEAIKIQILSKLRL-NH2 (listed as Mus musculus) [mMPS(28-43), reference compound]”, the myostatin inhibitory activity entry reads like this: (final concentration of 1 μM) “a high myostatin inhibitory activity was not recognized”; (final concentration of 10 μM) “the myostatin inhibitory activity was not recognized”.

“WYIEAIKIQILSKLRL-NH2 [d-14, reference compound]”: the myostatin inhibitory activity result (final concentration of 1 μM) is on record as “a high myostatin inhibitory activity was not recognized”.
